Laboratory results published in paper PMC8948292, “Combining PEGylated mito-atovaquone with MCT and Krebs cycle redox inhibitors as a potential strategy to abrogate tumor cell proliferation” (Scientific Reports, 2022).

Legend:
[1] = target: T1, mitochondrial complex III (U87MG cells) (Homo sapiens, UniProt P00156); assay: Complex III-dependent oxygen consumption, Seahorse XF-96; assay type: cell-based
T1 construct: endogenous in cells; host or cells: U87MG (ATCC HTB-14)
Procedure: (§1) Mitochondrial oxygen consumption was measured using the Seahorse XF-96 Extracellular Flux Analyzer (Agilent, North Billerica, MA)[3],[33],[67],[68]. To determine the intact cell mitochondrial function of MiaPaCa-2 cells in response to Mito-PEG-ATO analogs, we used the bioenergetic function assay previously described[2],[3]. […] From these measurements, indices of mitochondrial function were determined as previously described[2],[3]. For mitochondrial complex activities assays, after cells were treated with Mito-PEG-ATO analogs for 24 h, the OCR-based assessment of mitochondrial complex activities was carried out on acutely permeabilized cells in the presence of different mitochondrial substrates, i.e., pyruvate/malate for complex I and duroquinol for complex III[3],[32],[34],[69]. Rotenone, malonate, and antimycin A (Sigma-Aldrich, St. Louis, MO) were used as specific inhibitors of mitochondrial complexes I, II, and III, respectively. Briefly, cells that were intact after treatments were immediately permeabilized using the Seahorse XF Plasma Membrane Permeabilizer (Agilent). The mitochondrial complex I-induced OCR was assayed in mannitol and sucrose buffer[69] containing 10 mM pyruvate and 1.5 mM malate (substrates for complex I) and 10 mM malonate (which inhibits complex II activities). […] The IC50 values were determined as previously reported. […]

[2] = target: mitochondrial complex III (MiaPaCa-2 cells) (Homo sapiens, UniProt P00156); assay: Complex III-dependent oxygen consumption in permeabilized cells, Seahorse XF-96; assay type: cell-based
Sequence of mitochondrial complex III (MiaPaCa-2 cells) (P00156 whole entry): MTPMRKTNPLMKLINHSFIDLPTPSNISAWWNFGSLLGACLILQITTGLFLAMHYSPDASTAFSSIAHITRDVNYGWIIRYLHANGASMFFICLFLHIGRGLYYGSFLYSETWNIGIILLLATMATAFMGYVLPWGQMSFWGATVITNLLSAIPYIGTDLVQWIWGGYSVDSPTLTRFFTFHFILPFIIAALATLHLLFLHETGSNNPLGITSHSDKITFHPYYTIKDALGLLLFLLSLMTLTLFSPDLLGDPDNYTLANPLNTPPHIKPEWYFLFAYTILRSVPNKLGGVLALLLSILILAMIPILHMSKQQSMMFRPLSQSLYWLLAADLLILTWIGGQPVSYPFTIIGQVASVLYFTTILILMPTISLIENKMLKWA
Sequence of mitochondrial complex III (MiaPaCa-2 cells) (P47985 whole entry partner): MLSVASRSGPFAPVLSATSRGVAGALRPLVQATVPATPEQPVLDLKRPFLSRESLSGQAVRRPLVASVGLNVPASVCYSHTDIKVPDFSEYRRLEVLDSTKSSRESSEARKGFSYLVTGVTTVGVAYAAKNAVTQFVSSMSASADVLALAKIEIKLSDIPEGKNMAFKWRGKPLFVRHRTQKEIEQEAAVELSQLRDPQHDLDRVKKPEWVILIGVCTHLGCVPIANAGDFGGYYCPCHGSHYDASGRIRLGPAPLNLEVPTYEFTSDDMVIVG
How it was run: (§2)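 MiaPaCa-2 cells were treated 24 h with Mito-PEG-ATO analogs, and OCR was read on a Seahorse XF-96; basal respiration was taken in intact cells. For complex I, permeabilized cells received 10 mM pyruvate, 1.5 mM malate and 10 mM malonate; for complex III, 0.5 mM duroquinol, 1 µM rotenone and 10 mM malonate, both in mannitol/sucrose buffer. IC50 values were derived from the OCR data.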

MiaPaCa-2 cells [3] = assay: Cell proliferation (cell confluence), IncuCyte Live-Cell Analysis System; assay type: cell-based, human; conditions: for Cell confluence (% of control): MiaPaCa-2 cells, control ~90% confluence
How it was run: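 MiaPaCa-2 cells in DMEM with 10% FBS, plated at 1,000 cells/well in triplicate and adhered overnight, then treated with Mito-PEG-ATO analogs. Confluence imaged label-free over several days, increase in percent confluence serving as proliferation surrogate.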

[4] = system: mitochondrial complex I (U87MG cells); assay: Complex I-dependent oxygen consumption, Seahorse XF-96; assay type: cell-based, human
Procedure: as §1

MiaPaCa-2 cells [5] = assay: Basal extracellular acidification rate (ECAR) in intact cells; assay type: cell-based, human; conditions: 24 h treatment
Procedure: as §1

[6] = system: mitochondrial respiration (OCR) in intact MiaPaCa-2 cells; assay: Intact cell mitochondrial respiration (basal OCR), Seahorse XF-96; assay type: cell-based, human
How it was run: as §2

[7] = system: mitochondrial respiration (OCR) in intact U87MG cells; assay: as above; assay type: cell-based, human; conditions: 24 h treatment
Procedure: Mitochondrial oxygen consumption was measured using the Seahorse XF-96 Extracellular Flux Analyzer (Agilent, North Billerica, MA)[3],[33],[67],[68]. To determine the intact cell mitochondrial function of MiaPaCa-2 cells in response to Mito-PEG-ATO analogs, we used the bioenergetic function assay previously described[2],[3]. […] From these measurements, indices of mitochondrial function were determined as previously described[2],[3]. For mitochondrial complex activities assays, after cells were treated with Mito-PEG-ATO analogs for 24 h, the OCR-based assessment of mitochondrial complex activities was carried out on acutely permeabilized cells in the presence of different mitochondrial substrates, i.e., pyruvate/malate for complex I and duroquinol for complex III[3],[32],[34],[69]. Rotenone, malonate, and antimycin A (Sigma-Aldrich, St. Louis, MO) were used as specific inhibitors of mitochondrial complexes I, II, and III, respectively. […] The IC50 values were determined as previously reported.
Figure S8. […] (b) After eight baseline OCR measurements, the response to mitochondrial modulators (oligomycin, dinitrophenol, and rotenone/antimycin A as described in the Methods section) were recorded. The last three stable baseline OCR reading before oligomycin injection was plotted against the concentration of Mito-PEG4-ATO (red open box). […]

U87MG cells = assay: Basal extracellular acidification rate (ECAR) in intact cells; assay type: cell-based, human

T1 sequence (P00156 whole entry): as the sequence (P00156 whole entry) above
T1 sequence (P47985 whole entry partner): as the sequence (P47985 whole entry partner) above

O=C1C(OCCOCCOCCOCC[P+](c2ccccc2)(c2ccccc2)c2ccccc2)=C([C@H]2CC[C@H](c3ccc(Cl)cc3)CC2)C(=O)c2ccccc21.[Br-] [Mito-PEG4-ATO, [2-(2-(2-(2-((3-(trans-4-(4-chlorophenyl)cyclohexyl)-1,4-dioxo-1,4-dihydronaphthalen-2-yl)oxy)ethoxy)ethoxy)ethoxy)ethyl]triphenylphosphonium bromide]
Complex III-induced oxygen consumption [1]: inhibited | Complex III activity (OCR, % of control) ([2]; 0.02 µM): 98.8 % of control | Complex III activity (OCR, % of control) ([2]; 0.05 µM): 96.0 % of control | Complex III activity (OCR, % of control) ([2]; 0.08 µM): 99.9 % of control | Complex III activity (OCR, % of control) ([2]; 0.16 µM): 96.5 % of control | Complex III activity (OCR, % of control) ([2]; 0.32 µM): 90.1 % of control | Complex III activity (OCR, % of control) ([2]; 0.5 µM): 92.4 % of control | Complex III activity (OCR, % of control) ([2]; 0.8 µM): 76.5 % of control | Complex III activity (OCR, % of control) ([2]; 1.6 µM): 51.9 % of control | Complex III activity (OCR, % of control) ([2]; 5 µM): 24.8 % of control | IC50 ([2]; MiaPaCa-2 cells, 24 h treatment, antimycin A-inhibitable OCR, read-out: IC50, complex III-induced oxygen consumption (Complex III activity)): 1700 nM | IC50 (MiaPaCa-2 cells [3]; Homo sapiens, MIA PaCa-2, read-out: IC50, inhibition of cell proliferation): 140 nM | Cell confluence (% of control) (MiaPaCa-2 cells [3]; 0.005 µM): 100.53 % of control | Cell confluence (% of control) (MiaPaCa-2 cells [3]; 0.02 µM): 101.08 % of control | Cell confluence (% of control) (MiaPaCa-2 cells [3]; 0.05 µM): 100.72 % of control | Cell confluence (% of control) (MiaPaCa-2 cells [3]; 0.08 µM): 98.94 % of control | Cell confluence (% of control) (MiaPaCa-2 cells [3]; 0.16 µM): 29.68 % of control | Cell confluence (% of control) (MiaPaCa-2 cells [3]; 0.32 µM): 3.32 % of control | Cell confluence (% of control) (MiaPaCa-2 cells [3]; 0.48 µM): 3.11 % of control | Cell confluence (% of control) (MiaPaCa-2 cells [3]; 0.8 µM): 3.18 % of control | Cell confluence (% of control) (MiaPaCa-2 cells [3]; 1.6 µM): 2.81 % of control | Cell confluence (% of control) (MiaPaCa-2 cells [3]; 4.8 µM): 2.52 % of control | Complex I-induced oxygen consumption [4]: inhibited | ECAR (MiaPaCa-2 cells [5]): stimulated ECAR | OCR (pmol/min/µg protein) ([6]; 0.003 µM, 24 h treatment, intact MiaPaCa-2 cells, baseline OCR, mean, n=4): 20.44 pmol/min/µg protein | OCR (basal, intact cell mitochondrial respiration) ([6]; 0.01 µM, 24 h treatment, intact MiaPaCa-2 cells, mean, n=4): 17.79 pmol/min/µg protein | OCR (basal, intact cell mitochondrial respiration) ([6]; 0.03 µM, 24 h treatment, intact MiaPaCa-2 cells, mean, n=4): 17.72 pmol/min/µg protein | OCR (basal, intact cell mitochondrial respiration) ([6]; 0.05 µM, 24 h treatment, intact MiaPaCa-2 cells, mean, n=4): 16.82 pmol/min/µg protein | OCR (basal, intact cell mitochondrial respiration) ([6]; 0.1 µM, 24 h treatment, intact MiaPaCa-2 cells, mean, n=4): 13.38 pmol/min/µg protein | OCR (basal, intact cell mitochondrial respiration) ([6]; 0.2 µM, 24 h treatment, intact MiaPaCa-2 cells, mean, n=4): 9.15 pmol/min/µg protein | OCR (basal, intact cell mitochondrial respiration) ([6]; 0.3 µM, 24 h treatment, intact MiaPaCa-2 cells, mean, n=4): 6.10 pmol/min/µg protein | OCR (basal, intact cell mitochondrial respiration) ([6]; 0.5 µM, 24 h treatment, intact MiaPaCa-2 cells, mean, n=4): 3.29 pmol/min/µg protein | OCR (basal, intact cell mitochondrial respiration) ([6]; 1 µM, 24 h treatment, intact MiaPaCa-2 cells, mean, n=4): 1.41 pmol/min/µg protein | OCR (basal, intact cell mitochondrial respiration) ([6]; 3 µM, 24 h treatment, intact MiaPaCa-2 cells, mean, n=4): 0.43 pmol/min/µg protein | OCR (basal, intact cell mitochondrial respiration) ([6]; 10 µM, 24 h treatment, intact MiaPaCa-2 cells, mean, n=4): 0.42 pmol/min/µg protein | IC50 ([6]; Homo sapiens, MIA PaCa-2, 24 h, read-out: IC50, inhibition of basal OCR in intact cells): 260 nM | OCR in intact cells [7]: suppressed | ECAR (U87MG cells): stimulated ECAR
